This experiment deals with T1, human CRF receptor (Homo sapiens, UniProt P34998).
T1 construct: expressed in transfected cells; host or cells: CHO cells (membrane fraction)
T1 sequence (P34998 24-415): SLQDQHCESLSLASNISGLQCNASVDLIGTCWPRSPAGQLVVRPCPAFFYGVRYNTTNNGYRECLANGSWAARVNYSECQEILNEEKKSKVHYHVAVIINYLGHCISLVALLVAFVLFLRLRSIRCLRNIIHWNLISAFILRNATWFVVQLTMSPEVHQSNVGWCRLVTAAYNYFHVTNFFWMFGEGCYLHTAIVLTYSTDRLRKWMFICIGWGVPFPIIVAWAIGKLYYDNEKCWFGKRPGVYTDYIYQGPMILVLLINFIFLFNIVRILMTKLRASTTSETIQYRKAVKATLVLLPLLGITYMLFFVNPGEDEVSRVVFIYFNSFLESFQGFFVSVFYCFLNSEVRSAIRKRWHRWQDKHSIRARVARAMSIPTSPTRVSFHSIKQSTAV
The experiment is described as follows: Measurement of corticotropin-releasing factor (CRF) binding inhibitory rate; receptor binding experiment with 125I-CRF. To be noted: human CRF receptor expressing CHO cellular membrane fraction, 50 pM 125I-CRF, room temperature 1 hour. As for the experimental part:
Measurement of Corticotropin-Releasing Factor (CRF) Binding Inhibitory Rate
A receptor binding experiment was carried out using a human CRF receptor expressing CHO cellular membrane fraction and sheep CRF, [^125I]-tyr^0(^125I-CRF). 100 nM of a test compound was incubated with 1 μg of human CRF receptor expressing CHO cellular membrane fraction and 50 pM of ^125I-CRF in a binding assay buffer (50 mM Tris-HCl, 5 mM EDTA, 10 mM MgCl2, 0.05% CHAPS, 0.1% BSA, 0.5 mM PMSF, […] pepstatin, 20 μg/ml leupeptin, pH 7.5). In addition, for measuring nonspecific binding (NSB), 0.1 μM unlabelled human Urocortin was incubated with 1 μg of human CRF receptor expressing CHO cellular membrane fraction and 50 pM of ^125I-CRF in a binding assay buffer. After a binding reaction was carried out at room temperature for 1 hour, the membrane was entrapped on a glass filter (UniFilter plate GF-C/Perkin Elmer) by suction filtration using a cell harvester (Perkin Elmer), and washed with ice-cooled 50 mM Tris-HCl (pH 7.5). After drying the glass filter, a liquid scintillation cocktail (Microscinti 0, Perkin Elmer) was added, and the radioactivity of ^125I-CRF remaining on a glass filter was measured using Topcount (Perkin Elmer).
(TB-SB)/(TB-NSB)×100 (SB: radioactivity when a compound is added, TB: maximum binding radioactivity, NSB: nonspecific binding radioactivity) was calculated to obtain a binding inhibitory rate under the presence of 1,000 nM or 100 nM of each test substances.

Molecules are shown by their SMILES.

For `CCCN(CCC)c1nc2c(c(-c3ccc(C)cc3C)nn2C)c(=O)n1C` [9 (A), 3-(2,4-Dimethylphenyl)-6-dipropylamino-1,5-dimethyl-1,5-dihydro-4H-pyrazolo[3,4-d]pyrimidin-4-one], the inhibition is > 80%.

In the case of `CCCC(CCC)n1cc(C)c(=O)c2c(-c3ccc(C)cc3C)cccc21` [Example 24, 5-(2,4-Dimethylphenyl)-3-methyl-1-(1-propylbutyl)quinolin-4(1H)-one], the inhibition was > 80%.

Take `CCCN(CCC)c1cc(C)c(=O)n2c(-c3c(C)cc(C)cc3C)cccc12` [Example 28, 1-(Dipropylamino)-6-mesityl-3-methyl-4H-quinolizin-4-one]: the inhibition was > 80%.

Turning to `CCCN(CCC)c1nc2c(c(-c3c(C)cc(C)cc3C)cn2C)c(=O)n1C` [Example 41, 2-(Dipropylamino)-5-mesityl-3,7-dimethyl-3,7-dihydro-4H-pyrrolo[2,3-d]pyrimidin-4-one], the inhibition was > 80%.

For the compound `CCC(CC)Oc1nn(C)c(=O)c2c1ccn2-c1ccc(C)cc1C` [Example 96, 1-(2,4-Dimethylphenyl)-4-(1-ethylpropoxy)-6-methyl-1,6-dihydro-7H-pyrrolo[2,3-d]pyridazin-7-one], the inhibition was > 80%.

Turning to `CCC(CC)n1c2cccc(-c3c(C)cc(C)cc3C)c2c(=O)n1C` [Example 150, 1-(1-ethylpropyl)-4-mesityl-2-methyl-1,2-dihydro-3H-indazol-3-one], the inhibition is > 80%.

One may read the inhibition as the percentage by which the read-out fell short of the control.

The record behind these values is patent publication US7897607B2, “Cyclic compounds” (Takeda Pharmaceutical Company Limited, priority 2005, dated 2011).
